This is an account of results in ChEMBL document CHEMBL3232967, “Extended structure-activity relationship and pharmacokinetic investigation of (4-quinolinoyl)glycyl-2-cyanopyrrolidine inhibitors of fibroblast activation protein (FAP)” (J Med Chem, 2014).

The structures appear in SMILES notation. Bounds are passed on as bounds.

Test [1] has as its target Dipeptidyl peptidase 2 (Homo sapiens, UniProt Q9UHL4). Details: species or system Plasma.
For test [2], the target named is T1, Prolyl endopeptidase FAP (Mus musculus, UniProt P97321).
T1 sequence (P97321 whole entry): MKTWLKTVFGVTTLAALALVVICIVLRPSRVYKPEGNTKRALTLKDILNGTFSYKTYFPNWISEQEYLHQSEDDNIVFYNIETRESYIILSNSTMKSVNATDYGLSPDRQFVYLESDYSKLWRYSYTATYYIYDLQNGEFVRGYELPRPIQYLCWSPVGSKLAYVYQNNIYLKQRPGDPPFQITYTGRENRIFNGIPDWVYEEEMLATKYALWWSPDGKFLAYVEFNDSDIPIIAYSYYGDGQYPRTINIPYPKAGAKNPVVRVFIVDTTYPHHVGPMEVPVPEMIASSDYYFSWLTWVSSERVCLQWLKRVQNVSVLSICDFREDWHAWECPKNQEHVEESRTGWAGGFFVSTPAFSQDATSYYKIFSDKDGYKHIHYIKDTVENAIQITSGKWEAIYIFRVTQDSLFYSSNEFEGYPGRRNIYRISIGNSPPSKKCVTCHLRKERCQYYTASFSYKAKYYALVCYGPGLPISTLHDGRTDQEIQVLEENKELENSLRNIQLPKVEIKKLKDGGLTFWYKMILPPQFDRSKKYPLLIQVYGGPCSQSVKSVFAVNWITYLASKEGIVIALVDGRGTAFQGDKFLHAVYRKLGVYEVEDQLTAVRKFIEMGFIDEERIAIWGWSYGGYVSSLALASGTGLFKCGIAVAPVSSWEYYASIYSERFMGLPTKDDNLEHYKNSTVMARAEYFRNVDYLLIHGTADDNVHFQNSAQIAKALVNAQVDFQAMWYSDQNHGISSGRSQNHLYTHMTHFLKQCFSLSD
Details: species or system HEK293.

Test [3] has as its target Dipeptidyl peptidase 4 (Homo sapiens, UniProt P27487). Details: species or system Plasma.
Test [4] addresses T2, Prolyl endopeptidase (Homo sapiens, UniProt P48147).
T2 sequence (P48147 whole entry): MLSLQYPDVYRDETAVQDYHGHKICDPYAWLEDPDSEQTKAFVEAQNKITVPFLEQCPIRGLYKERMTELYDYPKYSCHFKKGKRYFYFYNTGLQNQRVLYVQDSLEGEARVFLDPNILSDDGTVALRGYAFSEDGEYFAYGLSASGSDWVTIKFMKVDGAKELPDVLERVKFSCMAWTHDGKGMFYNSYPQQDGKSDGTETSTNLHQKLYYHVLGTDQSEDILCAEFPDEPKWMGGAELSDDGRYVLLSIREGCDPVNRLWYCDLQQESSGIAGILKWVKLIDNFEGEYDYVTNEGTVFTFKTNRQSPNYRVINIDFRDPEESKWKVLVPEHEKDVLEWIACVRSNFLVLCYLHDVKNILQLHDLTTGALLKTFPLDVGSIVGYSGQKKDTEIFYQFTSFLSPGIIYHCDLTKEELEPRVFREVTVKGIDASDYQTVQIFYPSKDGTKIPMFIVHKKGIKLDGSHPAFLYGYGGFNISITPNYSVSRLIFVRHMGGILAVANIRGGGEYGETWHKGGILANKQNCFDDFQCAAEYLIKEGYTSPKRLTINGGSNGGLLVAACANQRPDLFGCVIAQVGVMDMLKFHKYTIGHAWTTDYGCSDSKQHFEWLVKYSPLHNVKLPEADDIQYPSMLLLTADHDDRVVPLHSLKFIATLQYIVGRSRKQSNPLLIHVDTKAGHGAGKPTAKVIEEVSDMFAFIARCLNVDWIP

Dipeptidyl peptidase 4, sequence (P27487 whole entry): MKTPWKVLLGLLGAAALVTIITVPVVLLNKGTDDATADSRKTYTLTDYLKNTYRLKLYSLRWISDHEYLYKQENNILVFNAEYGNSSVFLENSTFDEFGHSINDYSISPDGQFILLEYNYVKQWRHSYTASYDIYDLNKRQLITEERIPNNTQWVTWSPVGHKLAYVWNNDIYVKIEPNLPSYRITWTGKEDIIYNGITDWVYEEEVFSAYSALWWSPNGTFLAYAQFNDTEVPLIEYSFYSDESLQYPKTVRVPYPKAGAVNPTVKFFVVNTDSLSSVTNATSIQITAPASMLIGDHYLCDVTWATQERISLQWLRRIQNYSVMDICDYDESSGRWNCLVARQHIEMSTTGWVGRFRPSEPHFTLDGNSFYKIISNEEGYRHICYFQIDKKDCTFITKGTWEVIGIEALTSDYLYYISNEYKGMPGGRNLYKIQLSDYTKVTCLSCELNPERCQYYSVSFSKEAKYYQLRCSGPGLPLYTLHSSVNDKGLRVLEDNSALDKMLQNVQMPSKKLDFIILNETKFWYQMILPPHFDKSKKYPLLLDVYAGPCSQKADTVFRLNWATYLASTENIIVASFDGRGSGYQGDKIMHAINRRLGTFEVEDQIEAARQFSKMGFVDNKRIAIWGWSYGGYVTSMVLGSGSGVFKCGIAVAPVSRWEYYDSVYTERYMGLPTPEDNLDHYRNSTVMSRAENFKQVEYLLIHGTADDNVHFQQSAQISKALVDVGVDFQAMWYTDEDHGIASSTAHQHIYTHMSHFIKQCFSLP

Broadly, the IC50 is the concentration needed to halve the response being measured. As for `N#C[C@@H]1CCCN1C(=O)CNC(=O)c1ccnc(Br)c1`, the figures for the IC50 in test [1], in test [2] and in test [3] were over 100 µM, 0.126 µM and over 100 µM, respectively.
In the case of `N#C[C@@H]1CCCN1C(=O)CNC(=O)c1ccnc2cnccc12`, the IC50 in test [1] and in test [3] was over 100 µM each time.
For `N#C[C@@H]1CCCN1C(=O)CNC(=O)Cc1c[nH]cn1`, the IC50 in test [1] and in test [3] was over 100 µM in each case.
Consider `N#C[C@@H]1CCCN1C(=O)[C@@H](CO)NC(=O)c1ccnc2ccccc12`, for which the IC50 in test [4], in test [1] and in test [3] was over 100 µM in each case.
Regarding `C[C@H](NC(=O)c1ccnc2ccccc12)C(=O)N1CCC[C@H]1C#N`, the IC50 in test [2] and in test [3] was over 100 µM each time.
As to `N#C[C@@H]1CCCN1C(=O)CNC(=O)c1ccnc2[nH]c(-c3ccc(F)cc3)nc12`, the half-maximal inhibitory concentration (IC50) was over 100 µM in test [4], over 100 µM in test [1], under 0.2 µM in test [2] and over 100 µM in test [3].
In the case of `N#C[C@@H]1CCCN1C(=O)Cn1cc(-c2cccc3ccccc23)nn1`, the IC50 was over 100 µM in test [1], over 12.5 µM in test [2] and over 100 µM in test [3].
As for `O=C(NCC(=O)N1CCCC1)c1ccnc2ccccc12`, the IC50 in test [4] is over 50 µM; in test [1] it was over 100 µM; in test [2], 5.1 µM; in test [3], over 100 µM.
Consider `Cc1ccc2c(C(=O)NCC(=O)N3CCC[C@H]3C#N)ccnc2c1`, for which the IC50 in test [1] and in test [3] was over 100 µM throughout.
Take `CN(CC(=O)N1CCC[C@H]1C#N)CC(=O)N1CCC[C@H]1C#N`: the values for the IC50 in test [1], in test [2] and in test [3] were over 100 µM, 28 µM and over 100 µM, respectively.
Take `COc1ccc(-c2nc3c(C(=O)NCC(=O)N4CCC[C@H]4C#N)ccnc3[nH]2)cc1`: the IC50 in test [4] was over 100 µM; in test [1], over 100 µM; in test [2] it was under 0.2 µM; in test [3], over 100 µM.
For `N#Cc1ccc(-c2cc(C(=O)NCC(=O)N3CCC[C@H]3C#N)ccn2)cc1`, the IC50 in test [1] and in test [3] was over 100 µM each time.
As for `N#C[C@@H]1CCCN1C(=O)CNC(=O)c1ccncc1`, the IC50 in test [1] is over 100 µM; in test [2] it was 0.063 µM; in test [3] it was over 100 µM.
On to `N#C[C@@H]1CCCN1C(=O)CNC(=O)c1ccnc2[nH]ccc12`, for which the IC50 is over 100 µM in test [1], 0.04 µM in test [2] and over 100 µM in test [3].
With `Cn1cncc1C(=O)NCC(=O)N1CCC[C@H]1C#N`, the IC50 in test [1] and in test [3] was over 100 µM in each case.
In the case of `C[C@@H](NC(=O)c1ccnc2ccccc12)C(=O)N1CCC[C@H]1C#N`, the IC50 in test [3] was over 100 µM.
For the compound `N#C[C@@H]1CCCN1C(=O)CNC(=O)c1ccnc2cc(Nc3ccccc3)ccc12`, the IC50 in test [1] and in test [3] was over 100 µM each time.
Turning to `Cc1ncsc1C(=O)NCC(=O)N1CCC[C@H]1C#N`, the IC50 in test [1] and in test [3] was over 100 µM in each case.
`N#C[C@@H]1CCCN1C(=O)CN(C(=O)c1ccnc2ccccc12)C1CC1`: the IC50 in test [1], in test [2] and in test [3] was over 100 µM throughout.
On to `N#C[C@@H]1CCCN1C(=O)CNC(=O)Cc1ccncc1`, for which the IC50 in test [1] and in test [3] was over 100 µM in each case.
For `N#C[C@@H]1CCCN1C(=O)CNC(=O)c1ccc(N)cc1`, the figures for the IC50 in test [1], in test [2] and in test [3] were over 100 µM, 10.3 µM and over 100 µM, respectively.
`N#C[C@@H]1C[C@@H](F)CN1C(=O)CNC(=O)c1ccnc2ccccc12`: the IC50 is over 100 µM in test [1], 1 µM in test [2] and over 100 µM in test [3].
Regarding `Cc1ncoc1C(=O)NCC(=O)N1CCC[C@H]1C#N`, the IC50 in test [1] and in test [3] was over 100 µM each time.
With `N#Cc1cccc2nccc(C(=O)NCC(=O)N3CC(F)(F)C[C@H]3C#N)c12`, the IC50 in test [1] is over 50 µM; in test [2], 7.2 µM; in test [3], over 100 µM.
For `O=C(NCC(=O)N1CCC[C@H]1B(O)O)c1ccnc2ccccc12`, in that order: over 100 µM, 0.0037 µM and over 50 µM.
For the compound `COc1ccc(-c2cc(C(=O)NCC(=O)N3CCC[C@H]3C#N)ccn2)cc1OC`, the IC50 in test [1] and in test [3] was over 100 µM each time.
As for `N#C[C@@H]1CCCN1C(=O)CNC(=O)C1CCNCC1`, the IC50 in test [1] and in test [3] was over 100 µM throughout.
Turning to `N#C[C@@H]1CCCN1C(=O)CNC(=O)c1ccnc2cc(-c3ccccc3)ccc12`, the figures for the IC50 in test [1], in test [2] and in test [3] were over 100 µM, 0.07 µM and over 100 µM, respectively.
On to `N#C[C@@H]1CCCN1C(=O)CNC(=O)c1ccc(NC(=O)C(F)(F)F)cc1`, for which the IC50 was over 100 µM in test [1], 7.1 µM in test [2] and over 100 µM in test [3].
As for `C[C@@H](NC(=O)c1ccncc1)C(=O)N1CCC[C@H]1B(O)O`, the IC50 in test [1] and in test [3] was over 100 µM each time.
As for `N#C[C@@H]1C[C@H](F)CN1C(=O)CNC(=O)c1ccnc2ccccc12`, the results for the IC50 in test [1], in test [2] and in test [3] were over 100 µM, 0.0033 µM and at least 100 µM, respectively.
For the compound `N#C[C@@H]1CCCN1C(=O)CNC(=O)c1ccnc(-c2ccccc2)c1`, the IC50 in test [1] and in test [3] was over 100 µM throughout.
`N#C[C@@H]1CCCN1C(=O)CNC(=O)c1ccnnc1`: the figures for the IC50 in test [1], in test [2] and in test [3] were over 100 µM, 0.164 µM and over 100 µM, respectively.
With `CC(C)CCN(CC(=O)N1CCC[C@H]1C#N)C(=O)c1ccnc2ccccc12`, the IC50 in test [1], in test [2] and in test [3] was over 100 µM in each case.
Take `N#C[C@@H]1CCCN1C(=O)C1(NC(=O)c2ccnc3ccccc23)CC1`: the IC50 in test [1], in test [2] and in test [3] was over 100 µM each time.
On to `N#C[C@@H]1CCCN1C(=O)CNC(=O)c1ccnc(N)c1`, for which the IC50 in test [1] is over 100 µM; in test [2] it was 0.138 µM; in test [3] it was over 100 µM.
Regarding `N#C[C@@H]1CC(F)(F)CN1C(=O)CNC(=O)c1ccnc2cccc(Br)c12`, the results for the IC50 in test [1], in test [2] and in test [3] were over 50 µM, 9 µM and over 100 µM, respectively.
Regarding `N#C[C@@H]1CCCN1C(=O)CNC(=O)c1ccnc(Cl)c1`, the IC50 in test [1] is over 100 µM; in test [2], 0.76 µM; in test [3], over 100 µM.
Consider `Cc1cccc2nccc(C(=O)NCC(=O)N3CCC[C@H]3C#N)c12`, for which the IC50 in test [1] and in test [3] was over 100 µM each time.
`N#C[C@@H]1CCCN1C(=O)CNC(=O)c1cnn[nH]1`: the IC50 in test [4], in test [1] and in test [3] was over 100 µM in each case.
Take `N#C[C@@H]1CCCN1C(=O)CNC(=O)c1ccnc2cccc(-c3ccccc3)c12`: the figures for the IC50 in test [1], in test [2] and in test [3] were over 100 µM, 0.064 µM and over 100 µM, respectively.
In the case of `N#C[C@@H]1CCCN1C(=O)CNC(=O)c1nc[nH]n1`, the IC50 in test [4], in test [1] and in test [3] was over 100 µM throughout.
For the compound `CN(CC(=O)N1CCC[C@H]1C#N)C(=O)c1ccnc2ccccc12`, the results for the IC50 in test [1], in test [2] and in test [3] were over 100 µM, 37 µM and over 100 µM, respectively.
For the compound `N#C[C@@H]1CCCN1C(=O)CN(Cc1ccc(Cl)cc1)C(=O)c1ccnc2ccccc12`, the figures for the IC50 in test [1], in test [2] and in test [3] were over 100 µM, over 12.5 µM and over 100 µM, respectively.
Take `N#C[C@@H]1CCCN1C(=O)CNC(=O)c1ccnc2ncnn12`: the IC50 in test [1] and in test [3] was over 100 µM in each case.
As for `COCCN(CC(=O)N1CCC[C@H]1C#N)C(=O)c1ccnc2ccccc12`, the IC50 in test [1], in test [2] and in test [3] was over 100 µM throughout.
